Results on 1 compound are retold here after ChEMBL document CHEMBL4330071 (Eur J Med Chem, 2019).

Molecules are shown by their SMILES.

Test [1] relates to MV4-11. Nature of the test: Induction of apoptosis in human MV4-11 cells assessed as viable cells at 0.05 uM after 24 hrs by Annexin V-FITC/propidium iodide staining based flow cytometric analysis (reference value: 95.19%). Conditions: MV4-11, 24 h, read-out: Activity. The test is classed as functional. (In general: Flow cytometry measures light scatter and fluorescence of single cells or particles in a stream.)

Test [2] relates to MV4-11. Nature of the test: Growth inhibition of human MV4-11 cells harboring FLT3 ITD mutant at 10 uM after 72 hrs by CellTiter-Glo assay relative to control. The test is classed as functional. Conditions: MV4-11, 72 h, read-out: GI.

For the compound `CN1CCC(Nc2ccc(C(=O)Nc3cc(-c4cc(C#N)cs4)n[nH]3)cc2)CC1`, the viability at 0.05 µM in the test on MV4-11 [1] was found to be 59.6%. Moreover, in the test on MV4-11 [2], the inhibition of growth at 10 µM worked out at 89.9%.
